# From patent publication US20170305857A1, “N-ACYLPIPERIDINE ETHER TROPOMYOSIN-RELATED KINASE INHIBITORS” (Pfizer Limited, priority 2014, published 2017)
# Target: T1, recombinant His-tagged cytoplasmic domains of TRKA receptor (NTRK1, PV3144, aa 441-796) (Homo sapiens, UniProt P04629)
# T1 construct: aa 441-796; His; purchased Invitrogen PV3144
# Assay: Isolated TRK enzyme assay (HTRF KinEASE-TK, PV3144 TrkA enzyme assay)
# Format: biochemical
# Conditions: 4 nM enzyme, 40 uM ATP, 35 min, arithmetic mean where more than one reading
# Procedure, shortened: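 Enzyme and ATP were preincubated with compound for 20 min at room temperature in buffer with 10 mM MgCl and 2 mM DTT. TK-substrate-Biotin was then added (1 uM final) and the reaction run for an enzyme-specific optimized time. Phosphorylation was read by HTRF, and IC50 values came from sigmoid fits of percent inhibition normalized to plate controls, averaged over replicate readings.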
# T1 sequence (P04629 441-796): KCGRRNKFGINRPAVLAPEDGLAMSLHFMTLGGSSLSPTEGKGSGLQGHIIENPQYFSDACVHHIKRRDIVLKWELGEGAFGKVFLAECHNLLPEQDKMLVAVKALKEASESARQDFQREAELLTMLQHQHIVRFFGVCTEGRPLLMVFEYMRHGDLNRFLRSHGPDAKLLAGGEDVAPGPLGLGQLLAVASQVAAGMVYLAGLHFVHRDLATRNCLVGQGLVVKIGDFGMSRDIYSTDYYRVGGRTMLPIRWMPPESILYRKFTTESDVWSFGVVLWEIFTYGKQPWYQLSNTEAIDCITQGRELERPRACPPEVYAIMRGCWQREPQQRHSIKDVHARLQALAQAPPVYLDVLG
row,SMILES,IC50
1,"Cn1cnc(-c2ccc(O[C@H]3CCN(C(=O)Cc4ccc(OC5CC5)cc4)C[C@@H]3F)c(C(N)=O)c2)c1 [Example 42, 2-{[(3S,4S)-1-{[4-(cyclopropyloxy)phenyl]acetyl}-3-fluoropiperidin-4-yl]oxy}-5-(1-methyl-1H-imidazol-4-yl)benzamide]",3.1 nM
2,"Cn1cnc(-c2ccc(O[C@H]3[C@@H]4CC[C@H]3CN(C(=O)Cc3ccc(OC(F)(F)F)cc3)C4)c(C(N)=O)c2)c1 [Example 46, 5-(1-methyl-1H-imidazol-4-yl)-2-(((1R,5S,8r)-3-(2-(4-(trifluoromethoxy)phenyl)acetyl)-3-azabicyclo[3.2.1]octan-8-yl)oxy)benzamide]",2.2 nM
3,"Cn1cnc(-c2ccc(O[C@@H]3[C@@H]4CC[C@H]3CN(C(=O)Cc3ccc(OC(F)(F)F)cc3)C4)c(C(N)=O)c2)c1 [Example 47, 5-(1-methyl-1H-imidazol-4-yl)-2-(((1R,5S,8s)-3-(2-(4-(trifluoromethoxy)phenyl)acetyl)-3-azabicyclo[3.2.1]octan-8-yl)oxy)benzamide]",5.2 nM
4,"Cn1cnc(-c2ccc(O[C@@H]3C[C@H]4CC[C@@H](C3)N4C(=O)Cc3ccc(OC(F)(F)F)cc3)c(C(N)=O)c2)c1 [Example 48, 5-(1-methyl-1H-imidazol-4-yl)-2-(((1R,3s,5S)-8-(2-(4-(trifluoromethoxy)phenyl)acetyl)-8-azabicyclo[3.2.1]octan-3-yl)oxy)benzamide]",3.6 nM
5,"Cn1cnc(-c2ccc(O[C@@H]3CCN(C(=O)Cc4ccc(OC(F)(F)F)cc4)C[C@H]3F)c(C(N)=O)c2)c1 [Example 53, 2-(((3R,4R)-3-fluoro-1-(2-(4-(trifluoromethoxy)phenyl)acetyl)piperidin-4-yl)oxy)-5-(1-methyl-1H-imidazol-4-yl)benzamide]",1.2 nM
6,"NC(=O)c1cc(N2CCCC2)ncc1OC1CCN(C(=O)Cc2ccc(OC(F)(F)F)cc2)CC1 [Example 54, 2-(pyrrolidin-1-yl)-5-((1-(2-(4-(trifluoromethoxy)phenyl)acetyl)piperidin-4-yl)oxy)isonicotinamide]",42.4 nM
7,"CS(=O)(=O)Cn1cc(-c2cnc(O[C@@H]3CCN(C(=O)Cc4ccc(OC(F)(F)F)cc4)C[C@@H]3F)c(C(N)=O)c2)cn1 [Example 55, 2-{[(3S,4R)-3-fluoro-1-{[4-(trifluoromethoxy)phenyl]acetyl}piperidin-4-yl]oxy}-5-{1-[(methylsulfonyl)methyl]-1H-pyrazol-4-yl}pyridine-3-carboxamide]",1.8 nM
8,"NC(=O)c1cc(-c2c[nH]c(C3(O)COC3)n2)ccc1OC1CCN(C(=O)Cc2ccc(OC(F)(F)F)cc2)CC1 [Example 56, 5-[2-(3-hydroxyoxetan-3-yl)-1H-imidazol-5-yl]-2-[(1-{[4-(trifluoromethoxy)phenyl]acetyl}piperidin-4-yl)oxy]benzamide]",5.1 nM
9,"NC(=O)c1cc(-c2cnn(C3COC3)c2)ccc1OC1CCN(C(=O)Cc2ccc(OC(F)(F)F)cc2)CC1 [Example 57, 5-[1-(oxetan-3-yl)-1H-pyrazol-4-yl]-2-[(1-{[4-(trifluoromethoxy)phenyl]acetyl}piperidin-4-yl)oxy]benzamide]",2.6 nM
10,"NC(=O)c1cc(-c2cnn(CCO)c2)ccc1OC1CCN(C(=O)Cc2ccc(OC(F)(F)F)cc2)CC1 [Example 58, 5-[1-(2-hydroxyethyl)-1H-pyrazol-4-yl]-2-[(1-{[4-(trifluoromethoxy)phenyl]acetyl}piperidin-4-yl)oxy]benzamide]",5.5 nM
11,"Cc1n[nH]c(C)c1-c1cnc(OC2CCN(C(=O)Cc3ccc(OC(F)(F)F)cc3)CC2)c(C(N)=O)c1 [Example 59, 5-(3,5-dimethyl-1H-pyrazol-4-yl)-2-[(1-{[4-(trifluoromethoxy)phenyl]acetyl}piperidin-4-yl)oxy]pyridine-3-carboxamide]",10 nM
12,"NC(=O)c1cc(-c2cc[nH]n2)cnc1OC1CCN(C(=O)Cc2ccc(SC(F)(F)F)cc2)CC1 [Example 60, 5-(1H-pyrazol-3-yl)-2-{[1-({4-[(trifluoromethyl)sulfanyl]phenyl}acetyl)piperidin-4-yl]oxy}pyridine-3-carboxamide]",10 nM
13,"CC(C)(CO)n1cc(-c2ccc(OC3CCN(C(=O)Cc4ccc(OC(F)(F)F)cc4)CC3)c(C(N)=O)c2)cn1 [Example 62, 5-[1-(1-hydroxy-2-methylpropan-2-yl)-1H-pyrazol-4-yl]-2-[(1-{[4-(trifluoromethoxy)phenyl]acetyl}piperidin-4-yl)oxy]benzamide]",4 nM
14,"NC(=O)c1cc(-c2ccc3c(c2)CNS3(=O)=O)ccc1OC1CCN(C(=O)Cc2ccc(OC(F)(F)F)cc2)CC1 [Example 63, 5-(1,1-dioxido-2,3-dihydro-1,2-benzothiazol-5-yl)-2-[(1-{[4-(trifluoromethoxy)phenyl]acetyl}piperidin-4-yl)oxy]benzamide]",6.7 nM
15,"C[C@@H](N)c1ccc(-c2ccc(OC3CCN(C(=O)Cc4ccc(OC(F)(F)F)cc4)CC3)c(C(N)=O)c2)cc1 [Example 64, 4′-[(1R)-1-aminoethyl]-4-[(1-{[4-(trifluoromethoxy)phenyl]acetyl}piperidin-4-yl)oxy]biphenyl-3-carboxamide]",2.8 nM
16,"CC(C)(N)c1ccc(-c2ccc(OC3CCN(C(=O)Cc4ccc(OC(F)(F)F)cc4)CC3)c(C(N)=O)c2)cc1 [Example 65, 4'-(2-aminopropan-2-yl)-4-[(1-{[4-(trifluoromethoxy)phenyl]acetyl}piperidin-4-yl)oxy]biphenyl-3-carboxamide]",3.5 nM
17,"C[C@H](N)c1ccc(-c2ccc(OC3CCN(C(=O)Cc4ccc(OC(F)(F)F)cc4)CC3)c(C(N)=O)c2)cc1 [Example 66, 4'-[(1S)-1-aminoethyl]-4-[(1-{[4-(trifluoromethoxy)phenyl]acetyl}piperidin-4-yl)oxy]biphenyl-3-carboxamide]",2.8 nM
18,"Cc1nc(OC2CCN(C(=O)Cc3ccc(OC(F)(F)F)cc3)CC2)c(C(N)=O)cc1-c1cn(C)cn1 [Example 69, 6-methyl-5-(1-methyl-1H-imidazol-4-yl)-2-[(1-{[4-(trifluoromethoxy)phenyl]acetyl}piperidin-4-yl)oxy]pyridine-3-carboxamide]",6.1 nM
19,"NC(=O)c1cc(-c2cn[nH]c2)cnc1O[C@@H]1CCN(C(=O)Cc2ccc(OC(F)(F)F)cc2)C[C@@H]1F [Example 70, 2-{[(3S,4R)-3-fluoro-1-{[4-(trifluoromethoxy)phenyl]acetyl}piperidin-4-yl]oxy}-5-(1H-pyrazol-4-yl)pyridine-3-carboxamide]",1.6 nM
20,"Cn1cc(-c2cnc(O[C@@H]3CCN(C(=O)Cc4ccc(OC(F)(F)F)cc4)C[C@@H]3F)c(C(N)=O)c2)cn1 [Example 71, 2-{[(3S,4R)-3-fluoro-1-{[4-(trifluoromethoxy)phenyl]acetyl}piperidin-4-yl]oxy}-5-(1-methyl-1H-pyrazol-4-yl)pyridine-3-carboxamide]",1.3 nM
21,"NC(=O)c1cc(-c2cn[nH]c2)cnc1O[C@H]1CCN(C(=O)Cc2ccc(OC(F)(F)F)cc2)C[C@H]1F [Example 72, 2-{[(3R,4S)-3-fluoro-1-{[4-(trifluoromethoxy)phenyl]acetyl}piperidin-4-yl]oxy}-5-(1H-pyrazol-4-yl)pyridine-3-carboxamide]",1.3 nM
22,"NC(=O)c1cc(-c2cn[nH]c2)ccc1O[C@@H]1CCN(C(=O)Cc2ccc(OC(F)(F)F)cc2)C[C@@H]1F [Example 73, 2-{[(3S,4R)-3-fluoro-1-{[4-(trifluoromethoxy)phenyl]acetyl}piperidin-4-yl]oxy}-5-(1H-pyrazol-4-yl)benzamide]",0.9 nM
23,"Cn1cc(-c2ccc(O[C@@H]3CCN(C(=O)Cc4ccc(OC(F)(F)F)cc4)C[C@@H]3F)c(C(N)=O)c2)cn1 [Example 74, 2-{[(3S,4R)-3-fluoro-1-{[4-(trifluoromethoxy)phenyl]acetyl}piperidin-4-yl]oxy}-5-(1-methyl-1H-pyrazol-4-yl)benzamide]",0.9 nM
24,"Cn1cc(-c2ccc(O[C@H]3CCN(C(=O)Cc4ccc(OC(F)(F)F)cc4)C[C@H]3F)c(C(N)=O)c2)cn1 [Example 75, 2-{[(3R,4S)-3-fluoro-1-{[4-{trifluoromethoxy)phenyl]acetyl}piperidin-4-yl]oxy}-5-(1-methyl-1H-pyrazol-4-yl)benzamide]",0.9 nM
25,"NC(=O)c1cc(-c2cnn(C3CS(=O)(=O)C3)c2)ccc1O[C@H]1CCN(C(=O)Cc2ccc(OC(F)(F)F)cc2)C[C@H]1F [Example 76, 5-[1-(1,1-dioxidothietan-3-yl)-1H-pyrazol-4-yl]-2-{[(3R,4S)-3-fluoro-1-{[4-(trifluoromethoxy)phenyl]acetyl}pipertdin-4-yl]oxy}benzamide]",1.2 nM
26,"Cc1nc(-c2ccc(O[C@H]3CCN(C(=O)Cc4ccc(OC(F)(F)F)cc4)C[C@H]3F)c(C(N)=O)c2)c[nH]1 [Example 77, 2-{[(3R,4S)-3-fluoro-1-{[4-(trifluoromethoxy)phenyl]acetyl}pipertdin-4-yl]oxy}-5-(2-methyl-1H-imidazol-4-yl)benzamide]",1.6 nM
27,"NC(=O)c1cc(-c2cn[nH]c2)cnc1O[C@@H]1CCN(C(=O)Cc2ccc(OC3CC3)cn2)C[C@@H]1F [Example 78, 2-{[(3S,4R)-1-{[5-(cyclopropyloxy)pyridin-2-yl]acetyl}-3-fluoropiperidin-4-yl]oxy}-5-(1H-pyrazol-4-yl)pyridine-3-carboxamide]",2.6 nM
28,"Cc1n[nH]c(C)c1-c1cnc(O[C@@H]2CCN(C(=O)Cc3ccc(OC4CC4)cn3)C[C@@H]2F)c(C(N)=O)c1 [Example 79, 2-{[(3S,4R)-1-{[5-(cyclopropyloxy)pyridin-2-yl]acetyl}-3-fluoropiperidin-4-yl]oxy}-5-(3,5-dimethyl-1H-pyrazol-4-yl)pyridine-3-carboxamide]",6.9 nM
29,"NC(=O)c1cc(-c2cn[nH]c2)cnc1O[C@H]1CCN(C(=O)Cc2ccc(OC3CC3)cn2)C[C@@H]1F [Example 80, 2-{[(3S,4S)-1-{[5-(cyclopropyloxy)pyridin-2-yl]acetyl}-3-fluoropiperidin-4-yl]oxy}-5-(1H-pyrazol-4-yl)pyridine-3-carboxamide]",9.9 nM
